The results in this text go back to US20260216168A1, “MODULATION OF PD-1 SIGNALING FOR TREATMENT OF DISEASES” (Wuhan University, priority 2023, published 2026).

The structures appear in SMILES notation. Entries after “also recorded” stand apart in the source; their conditions may differ.

The target in test [1] is T1, MARCH5 (Homo sapiens, UniProt Q9NX47).
T1 construct: expressed in transfected cells; host or cells: HEK293
T1 sequence (Q9NX47 1-278): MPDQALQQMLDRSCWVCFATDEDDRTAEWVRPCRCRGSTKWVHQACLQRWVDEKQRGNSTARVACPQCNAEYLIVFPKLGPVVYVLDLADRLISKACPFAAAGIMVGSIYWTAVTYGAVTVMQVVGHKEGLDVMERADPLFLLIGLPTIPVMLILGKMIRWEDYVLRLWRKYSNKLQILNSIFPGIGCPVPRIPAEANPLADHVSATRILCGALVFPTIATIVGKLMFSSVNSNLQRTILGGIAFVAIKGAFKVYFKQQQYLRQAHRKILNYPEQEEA
Description: MARCH5 / γc-luciferase reporter system in co-transfected HEK293 cells (screen of FDA-approved drugs). The format is cell-based. An excerpt:
Unfortunately, no pharmacological inhibitors of MARCH5 have been reported. We designed a reporter system in which HEK293 cells are co-transfected with two plasmids encoding MARCH5 and γc-luciferase fusion protein respectively. In this system, inhibition of MARCH5 by an inhibitor would result in increased luciferase activity in reporter assays.
Using this system, we screened a collection of Food and Drug Administration-approved drugs and identified 10 compounds that increased luciferase activity to more than 1.5-folds (Table 1). […] Pitavastatin is a unique lipophilic statin and potent inhibitor of HMG-CoA reductase with a strong effect on lowering plasma total cholesterol and triacylglycerol. Pitavastatin has also been reported to have pleiotropic beneficial effects such as suppression of inflammation, regulation of angiogenesis and osteogenesis, improvement of endothelial function and arterial stiffness.
In general terms: A reporter such as luciferase makes a cellular process visible.

Test [2] relates to γc. Description: γc level by immunoblotting after PC treatment of T cells and T cell lines. Format: cell-based. To be noted: PC 0, 0.5, 1, 2 μM, 24 h; human and mouse CD8+ T, Jurkat, HPB-ALL, CTLL2 cells; listed as PC.
Test [3] concerns MARCH5-deficient Jurkat cells. Briefly: γc level by immunoblotting in control or MARCH5-deficient Jurkat cells treated with PC. Format: cell-based, human. To be noted: PC 0, 0.5, 1 μM, 24 h, listed as PC. For orientation: Immunoblotting shows a protein as a band on a membrane.
Test [4] relates to MC38 colorectal carcinoma and B16F10 melanoma. Briefly: Pitavastatin calcium (PC) therapy in C57BL/6j mice, MC38 and B16F10 tumor models. Format: in vivo, mouse. To be noted: PC alone 5 mg/kg/day i.p.; MC38 and B16F10 in C57BL/6j mice; listed as PC. Here is the method:
C57BL/6j mice were subcutaneously injected with 5×10^5 of MC38 or B16F10 cells. On day 3 (MC38) or 5 (B16F10) after tumor cell implantation, mice were intraperitoneally injected with control or PC (5 mg/kg/day). Tumor sizes were measured every two days by caliper. Tumor-bearing mice were euthanized on day 13 (MC38) or day 15 (B16F10). Tumor weights were measured by Analytical Balance. […] Data were analyzed using a student's unpaired t-test with GraphPad Prism 8. • (D) Effects of PC on the level of γc in TILs. TILs were isolated from the MC38 tumor tissues of FIG. 7C. TILs were stained with the indicated antibodies and analyzed by flow cytometry. […] Data were analyzed using a student's unpaired t-test with GraphPad Prism 8. […] TILs were isolated from the MC38 tumor tissues of FIG. 7C. TILs were stained with the indicated antibodies and analyzed by flow cytometry. […] C57BL/6j mice were subcutaneously injected with MC38 cells (5×10^5). […] Tumor sizes were measured every two days by caliper from day 5. […]
Pitavastatin calcium (PC) therapy in C57BL/6j mice: mice were intraperitoneally injected with control or PC (P129617, 5 mg/kg/day, dissolved in PBS, Aladdin) three (MC38 tumor) or five (B16F10 tumor) days after inoculation of tumor cells, and tumor sizes were measured every two days by caliper. […] TILs were analyzed by flow cytometry.

The test system of test [5] is tumor-infiltrating lymphocytes. Briefly: Flow cytometry of tumor-infiltrating lymphocytes from MC38 tumors after PC. The format is in vivo, mouse. The protocol:
(§1) C57BL/6j mice were subcutaneously injected with 5×10^5 of MC38 or B16F10 cells. On day 3 (MC38) or 5 (B16F10) after tumor cell implantation, mice were intraperitoneally injected with control or PC (5 mg/kg/day). Tumor sizes were measured every two days by caliper. Tumor-bearing mice were euthanized on day 13 (MC38) or day 15 (B16F10). Tumor weights were measured by Analytical Balance. […] Data were analyzed using a student's unpaired t-test with GraphPad Prism 8. • (D) Effects of PC on the level of γc in TILs. TILs were isolated from the MC38 tumor tissues of FIG. 7C. TILs were stained with the indicated antibodies and analyzed by flow cytometry. […] Data were analyzed using a student's unpaired t-test with GraphPad Prism 8. […] TILs were isolated from the MC38 tumor tissues of FIG. 7C. TILs were stained with the indicated antibodies and analyzed by flow cytometry. […] C57BL/6j mice were subcutaneously injected with MC38 cells (5×10^5). […] Tumor sizes were measured every two days by caliper from day 5. […] C57BL/6j mice were subcutaneously injected with MC38 cells (5×10^5). […] Mice were sacrificed when the tumor size is bigger than 15 mm of the mean tumor diameter, tumor volume exceeded 2000 mm^3, or tumor had ulcers with diameter reached 10 mm. Statistical analysis was performed using the GraphPad Prism 8 software, n=8. Kaplan-Meier survival curves and corresponding log-rank (Mantel-Cox) tests were used to evaluate the statistical differences between groups in survival studies. There is a significant difference when the P<0.05.
Cells were subjected to stain with the indicated antibodies for 30 min in 4° C. The cells were analyzed and data were acquired with BD Fortessa X-20 and FACSDiva 7 software following the exemplified gating strategy for flow cytometry analysis. The data were processed using FlowJo software.
Pitavastatin calcium (PC) therapy in C57BL/6j mice: mice were intraperitoneally injected with control or PC (P129617, 5 mg/kg/day, dissolved in PBS, Aladdin) three (MC38 tumor) or five (B16F10 tumor) days after inoculation of tumor cells, and tumor sizes were measured every two days by caliper. Tumor-bearing mice were euthanized on day 13 (MC38 tumor) or day 15 (B16F10 tumor). TILs were analyzed by flow cytometry.
Tumor tissues were separated from the mice and cut into pieces. The tumor tissues were suspended with 2 ml of tumor digestion buffer (1×HBSS buffer with 5 mg/ml collagenase II and 0.1% DNaseI) and rotated for at 37° C. for 1 h. The cell suspension was filtered using a 70-μm filter to obtain single-cell suspension. […] Cells were analyzed and data were acquired with BD Fortessa X-20 and FACSDiva 7 software following the exemplified gating strategy for flow cytometry analysis. […]

Test [6] has as its system MC38 cells. Briefly: PC, IL-2 and anti-PD-1 therapy in C57BL/6j mice bearing MC38 tumors. The format is in vivo. To be noted: PC 5 mg/kg, IL-2 50000 IU per mouse, anti-PD-1 100 μg per mouse, i.p. Here is the method: as §1
Tumor size and mouse survival were measured every two days from day 5.
For survival studies, mice were sacrificed when the tumor size was bigger than 15 mm of the mean tumor diameter, tumor volume exceeded 2000 mm^3, or tumor had ulcers with a diameter reached 10 mm. Statistical analysis was performed using the GraphPad Prism 8 software. Kaplan-Meier survival curves and corresponding log-rank (Mantel-Cox) tests were used to evaluate the statistical differences between groups in survival studies. There is a significant difference when the P<0.05.

Test [7] relates to tumor. Briefly: PC or rosuvastatin calcium alone or with IL-2 on tumor growth in mice. Format: in vivo, mouse. An excerpt: We further tested the anti-tumor effects of PC in mouse MC38 colorectal carcinoma and B16F10 melanoma models.

In the case of `O=C(O)C[C@H](O)C[C@H](O)/C=C/c1c(C2CC2)nc2ccccc2c1-c1ccc(F)cc1` [Pitavastatin calcium], the “Rel. Luc. Act” value in test [1] (HEK293 cells co-transfected with MARCH5 and γc-luciferase fusion protein, increase = MARCH5 inhibition) is reported as 2.06. The “luciferase activity in MARCH5-expressing versus control HEK293 cells” value in test [1] (confirmative experiments) is on record as “specifically increased the luciferase activity in MARCH5-expressing but not control HEK293 cells”. Further, the “level of γc (immunoblotting)” value in test [2] was “up-regulated the level of γc in a dose-dependent manner; also recorded: up-regulates the level of γc”. In addition, the “γc protein level, MARCH5 dependence” value in test [3] is on record as “did not further increase its protein level; also recorded: MARCH5-deficiency impairs PC-induced up-regulation of γc; also recorded: up-regulated the level of γc in a MARCH5-dependent manner”. The tumor growth result in test [4] is on record as “significantly suppressed tumor growth; also recorded: suppresses tumor growth; also recorded: inhibited tumor growth”; in test [7] (statin administered alone, mice), “suppressed tumor growth”. For the same compound, the “level of γc in tumor-infiltrating lymphocytes” value in test [5] (MC38 tumors, PC 5 mg/kg/day i.p., listed as PC) was “higher level of γc; also recorded: up-regulated the level of γc in tumor-infiltrating lymphocytes”. For the same compound, in test [5] (MC38 tumors, PC treatment), the “percentage of TIM3+ cells in infiltrated CD8+ T cells” value is given as “reduced the percentage of TIM3^+ cells”. In addition, in test [5] (MC38 tumors, PC treatment, listed as PC), the “percentage of GzmB+ cells in infiltrated CD8+ T cells” value was “up-regulated the percentage of GzmB^+ cells; also recorded: increases tumor infiltrating CD8^+ cytotoxic T cells”. Also, in test [5] (after PC administration), the “percentages of CD8+ T, NK, CD4+ T, Treg and B cells in tumor-infiltrating lymphocytes” value is recorded as “did not show significant difference”. The “tumor suppression by IL-2 or IL-2 plus PD-1 blocking antibody when PC is added” value in test [6] is “significantly improved the efficacy of anti-tumor immunotherapy in mice”; in test [6] (listed as PC) it was “significantly increased the efficacies; also recorded: potentiates the anti-tumor efficacy of IL-2 and PD-1 combination; also recorded: sensitized the anti-tumor effects of IL-2 as well as its combination with PD-1 blocking antibody”. For the same compound, in test [6] (listed as PC), the “overall survival of mice treated with IL-2 or IL-2 plus PD-1 blocking antibody when PC is added” value was “significantly increased the efficacies; also recorded: promotes the survival rate of mice treated with IL-2 and PD-1 blockade”. Besides, the “synergistic effect with IL-2 on tumor suppression” value in test [7] (combined with IL-2, mice) is given as “has a synergistic effect”.
